Format in all cases: binding
The target in one assay is T1, FZD4 (Homo sapiens, UniProt Q9ULV1).
T1 construct: purchased Promega (in-house HiBiT-GPCR construct library, NanoBRET)
T1 sequence (Q9ULV1 37-537): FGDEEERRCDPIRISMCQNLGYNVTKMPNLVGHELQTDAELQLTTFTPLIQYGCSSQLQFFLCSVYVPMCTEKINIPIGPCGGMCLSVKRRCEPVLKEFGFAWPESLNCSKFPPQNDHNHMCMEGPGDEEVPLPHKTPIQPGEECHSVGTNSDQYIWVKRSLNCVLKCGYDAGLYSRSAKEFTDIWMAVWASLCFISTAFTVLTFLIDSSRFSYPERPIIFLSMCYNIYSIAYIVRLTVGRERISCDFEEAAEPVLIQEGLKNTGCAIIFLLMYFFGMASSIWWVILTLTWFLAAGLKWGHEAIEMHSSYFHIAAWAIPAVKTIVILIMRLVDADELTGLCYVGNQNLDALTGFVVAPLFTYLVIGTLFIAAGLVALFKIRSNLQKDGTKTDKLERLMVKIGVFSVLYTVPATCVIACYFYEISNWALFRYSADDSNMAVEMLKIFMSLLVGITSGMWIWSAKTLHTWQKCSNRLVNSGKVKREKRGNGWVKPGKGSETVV
Nature of the assay: NanoBRET screen HiBiT-FZD4 in HEK293. The method, then:
(§1) Each tracer candidate was screened across the entire library of HiBiT-GPCR constructs using NanoBRET as the detection modality. As depicted in Figure 4A, the specificity of interactions was evaluated through decrease in BRET due to competitive displacement of a bound tracer by excess parental compound. Each tracer was analyzed for binding to each HiBiT-GPCR fusion in the absence and in the presence of competing parental compound. Briefly, HEK293 cells were transfected with HiBiT-GPCR constructs diluted into promoterless DNA to reduce expression and maximize translocation to the cell surface. Each tracer candidate was then screened at concentrations of 1 μM and 0.1 μM across cells expressing these fusions. Cells were treated for 1.5 h with tracer either alone or in the presence of 20 μM competing parental compound (i.e., control). BRET was measured upon addition of purified LgBiT and subsequent complementation with HiBiT genetically fused to a GPCR. The specificity of interactions was assessed through a decrease in BRET signal due to competitive displacement of the bound tracer. To further gauge the robustness of these interactions, the fold response over the control (i.e., BRETtracer/BRETcontrol) was calculated. We chose a 1.5-fold response, which translates to ≥7-fold signal over noise as the minimal threshold required to score an interaction as positive. […]. Below we highlight the screening results obtained for our exemplary fluorescent tracers based on Clozapine, Amitriptyline and AZD1283.
(§2) HiBiT-GPCR DNA constructs were diluted in 10 mM Tris pH 8 to a final concentration of 0.01 μg/μL, arrayed in 96-well plates and stored at −20 °C. For transfection, HEK293 cells were suspended in Opti-MEM (without phenol red) supplemented with 2% fetal bovine serum (Seradigm) and 100 units/mL penicillin–streptomycin (Gibco) at a final concentration of 220,000 cells/mL and dispensed into white 96-well plates at 90 μL/well. Subsequent transfections and screens were carried using an Agilent Bravo Automated Liquid Handling Platform. First, the 96-well HiBiT DNA arrays were diluted 25-fold in Opti-MEM (without serum or phenol red) to a final concentration of 0.0004 μg/μL and 20 μL of the diluted DNAs were transferred into new 96-well plates. Next, promoterless carrier DNA (1 μg/μL) was diluted 25-fold (0.04 μg/μL) and then dispensed into the diluted arrays at 20 μL/well. Following brief mixing, Viafect transfection reagent (Promega) diluted 16-fold into Opti-MEM was dispensed into the plates at 40 μL/well. After mixing by pipetting, plates were incubated for 10 min on the pipetting station deck. The DNA-transfection reagent complexes were then added to plates containing cells. To facilitate the screen, 10 μL of DNA-transfection reagent complexes were added in duplicates to the top 4 and bottom 4 rows, resulting in two identical 48-well arrays per plate. Plates with transfected cells were incubated for 18–20 h at 37 °C/5% CO2. A screen of each tracer across the entire library using two different concentrations requires duplicate plates of transfected cells. Depending on the number of tracers being screened, transfections can be scaled up using the same ratios. The next day, for each tracer, four 20× screening solutions in tracer dilution buffer (Promega) were prepared: two duplicates at final concentration of 20 μM and two duplicates at a final concentration of 2 μM. A competing unmodified compound was added to one of each duplicate at a final concentration of 400 μM. The four resulting solutions were diluted 4-fold in Opti-MEM without serum or phenol red to generate 5× solutions (5 µM and 0.5 µM tracer +/− 100 μM competing compound). To screen the library, a BioTek MultiFlo FX liquid dispenser was used to dispense 22.5 µL of tracer solution to the top 4 rows and 22.5 µL tracer + competing compound solution to the 4 bottom rows. Plates were briefly mixed on an orbital shaker and incubated for 1.5 h at room temperature. […]
For orientation: Bioluminescence resonance energy transfer reports proximity on the nanometre scale.

In the next assay the target is T2, CCR6 (Homo sapiens, UniProt P51684).
T2 construct: purchased Promega (in-house HiBiT-GPCR construct library, NanoBRET)
T2 sequence (P51684 1-374): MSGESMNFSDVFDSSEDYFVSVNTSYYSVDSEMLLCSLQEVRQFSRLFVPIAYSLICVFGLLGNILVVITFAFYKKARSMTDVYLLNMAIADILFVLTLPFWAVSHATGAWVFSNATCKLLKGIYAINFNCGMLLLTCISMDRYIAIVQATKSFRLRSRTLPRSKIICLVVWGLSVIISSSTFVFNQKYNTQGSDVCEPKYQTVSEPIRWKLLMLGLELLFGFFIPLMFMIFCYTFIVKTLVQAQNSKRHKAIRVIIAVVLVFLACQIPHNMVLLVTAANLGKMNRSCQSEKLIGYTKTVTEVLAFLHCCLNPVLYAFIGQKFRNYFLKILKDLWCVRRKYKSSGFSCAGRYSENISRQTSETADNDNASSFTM
Nature of the assay: NanoBRET screen HiBiT-CCR6 in HEK293. The procedure: as §1, §2

For another assay, the target named is T3, MLNR (Homo sapiens, UniProt O43193).
T3 construct: purchased Promega (in-house HiBiT-GPCR construct library, NanoBRET)
T3 sequence (O43193 whole entry): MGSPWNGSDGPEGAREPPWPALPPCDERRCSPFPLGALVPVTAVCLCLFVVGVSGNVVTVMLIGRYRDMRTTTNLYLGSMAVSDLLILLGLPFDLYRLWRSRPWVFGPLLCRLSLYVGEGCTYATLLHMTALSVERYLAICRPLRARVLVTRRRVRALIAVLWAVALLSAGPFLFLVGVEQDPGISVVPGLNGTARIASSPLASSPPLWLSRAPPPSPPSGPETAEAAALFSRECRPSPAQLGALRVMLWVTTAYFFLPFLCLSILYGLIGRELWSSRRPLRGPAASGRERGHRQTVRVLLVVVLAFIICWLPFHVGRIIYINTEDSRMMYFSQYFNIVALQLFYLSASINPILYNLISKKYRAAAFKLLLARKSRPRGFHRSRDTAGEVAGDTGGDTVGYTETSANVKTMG
Nature of the assay: NanoBRET screen HiBiT-MLNR in HEK293. The method, then:
as §1, §2

For the next assay, the target named is T4, CCR8 (Homo sapiens, UniProt P51685).
T4 construct: purchased Promega (in-house HiBiT-GPCR construct library, NanoBRET)
T4 sequence (P51685 whole entry): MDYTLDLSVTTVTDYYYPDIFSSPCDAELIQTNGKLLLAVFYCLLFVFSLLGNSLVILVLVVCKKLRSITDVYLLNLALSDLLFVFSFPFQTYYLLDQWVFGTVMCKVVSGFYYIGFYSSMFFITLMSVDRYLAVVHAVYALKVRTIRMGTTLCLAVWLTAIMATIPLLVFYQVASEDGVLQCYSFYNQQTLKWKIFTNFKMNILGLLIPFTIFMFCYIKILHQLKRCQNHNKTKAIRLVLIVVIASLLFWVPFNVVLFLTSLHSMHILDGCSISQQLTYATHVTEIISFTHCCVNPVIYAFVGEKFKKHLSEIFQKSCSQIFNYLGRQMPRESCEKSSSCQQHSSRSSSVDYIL
Nature of the assay: NanoBRET screen HiBiT-CCR8 in HEK293. The method, then:
as §1, §2

Structures are written as SMILES.

Consider `O=C(CCc1ccc2n1[B-](F)(F)[N+]1=C(c3ccc[nH]3)C=CC1=C2)NCc1ccc(C(=O)NCCOCCC(=O)N[C@@H]2CC[C@@]3(O)[C@H]4Cc5ccc(O)c6c5[C@@]3(CCN4CC3CC3)[C@H]2O6)cc1` [Naltrexone-3-NB590], for which the “NanoBRET Fold Response” value on FZD4 (FZD4, tracer 0.1μM) is listed as 0.89; at FZD4 (FZD4, tracer 1μM) it was 1.14; at CCR6 (CCR6, tracer 0.1μM), 0.94; on CCR6 (CCR6, tracer 1μM), 1.24; at MLNR (MLNR, tracer 0.1μM), 1.44; on MLNR (MLNR, tracer 1μM), 0.69. Besides, the “NanoBRET Fold Response” value was 1.14 at CCR8 (CCR8, tracer 0.1μM) and 1.02 at CCR8 (CCR8, tracer 1μM).
For `CN1CCN(C2=Nc3cc(Cl)ccc3N(CC(=O)NCCOCCOCCOCCOCCNC(=O)CCc3ccc4n3[B-](F)(F)[N+]3=C(c5ccc[nH]5)C=CC3=C4)c3ccccc32)CC1` [Clozapine-c-2-NB590], the “NanoBRET Fold Response” value is on record as 1.02 on FZD4 (FZD4, 0.1μM tracer); 0.93 on FZD4 (FZD4, 1μM tracer); 0.99 on CCR6 (CCR6, 0.1μM tracer); 0.91 on CCR6 (CCR6, 1μM tracer); 0.66 at MLNR (MLNR, 0.1μM tracer); 1.14 at MLNR (MLNR, 1μM tracer). For the same molecule, the “NanoBRET Fold Response” value at CCR8 (CCR8, 0.1μM tracer) was 0.97; on CCR8 (CCR8, 1μM tracer), 0.96.
For `O=C(CCOCCOCCOCCOCCNC(=O)CCc1ccc2n1[B-](F)(F)[N+]1=C(c3ccc[nH]3)C=CC1=C2)NCCCN1CCN(C2=Nc3cc(Cl)ccc3Nc3ccccc32)CC1` [Clozapine-a-2-NB590], the “NanoBRET Fold Response” value at FZD4 (FZD4, 0.1μM tracer) was determined as 1.20; at FZD4 (FZD4, 1μM tracer) it was 0.95; at CCR6 (CCR6, 0.1μM tracer), 1.05; on CCR6 (CCR6, 1μM tracer) it was 0.97; at MLNR (MLNR, 0.1μM tracer), 0.94; at MLNR (MLNR, 1μM tracer) it was 1.08. Besides, the “NanoBRET Fold Response” value at CCR8 (CCR8, 0.1μM tracer) came to 1.02; at CCR8 (CCR8, 1μM tracer), 0.93.
In the case of `CCOC(=O)c1cc(C#N)c(N2CCC(C(=O)NS(=O)(=O)Cc3ccccc3/C=C/C(=O)NCCNC(=O)CCc3ccc4n3[B-](F)(F)[N+]3=C(c5ccc[nH]5)C=CC3=C4)CC2)nc1C` [AZD1283-1-NB590], the “NanoBRET Fold Response” value is given as 1.03 on FZD4 (FZD4, 0.1μM); 1.03 on FZD4 (FZD4, 1μM); 1.06 at CCR6 (CCR6, 0.1μM); 1.08 at CCR6 (CCR6, 1μM); 1.06 on MLNR (MLNR, 0.1μM); 1.01 on MLNR (MLNR, 1μM). Also, the “NanoBRET Fold Response” value on CCR8 (CCR8, 0.1μM) was found to be 1.04; on CCR8 (CCR8, 1μM) it was 1.18.
Take `COc1ccc2[nH]c(-c3ccc(CNC(=O)CCOCCOCCOCCOCCNC(=O)CCc4ccc5n4[B-](F)(F)[N+]4=C(c6ccc[nH]6)C=CC4=C5)cc3)c(CCNC(C)=O)c2n1` [AzomelatoninICO9-2-NB590]: the “NanoBRET Fold Response” value on FZD4 (0.1μM tracer) is listed as 0.89; at FZD4 (1μM tracer) it was 1.08; at CCR6 (0.1μM tracer), 0.85; on CCR6 (1μM tracer) it was 1.20; on MLNR (0.1μM tracer), 0.60; on MLNR (1μM tracer), 0.87. Further, the “NanoBRET Fold Response” value at CCR8 (0.1μM tracer) is 0.68; on CCR8 (1μM tracer), 1.10.
`CCCn1c(=O)c2[nH]c(-c3ccc(OCC(=O)NCCNC(=O)CCOCCNC(=O)c4ccc(CNC(=O)CCc5ccc6n5[B-](F)(F)[N+]5=C(c7ccc[nH]7)C=CC5=C6)cc4)cc3)nc2n(CCC)c1=O` [XAC-3-NB590]: the “NanoBRET Fold Response” value at FZD4 (FZD4, tracer 0.1μM) amounted to 1.15; at FZD4 (FZD4, tracer 1μM), 1.12; at CCR6 (CCR6, tracer 0.1μM), 1.00; at CCR6 (CCR6, tracer 1μM) it was 1.26; at MLNR (MLNR, tracer 0.1μM) it was 0.99; at MLNR (MLNR, tracer 1μM), 0.91. The “NanoBRET Fold Response” value at CCR8 (CCR8, tracer 0.1μM) came to 0.90; on CCR8 (CCR8, tracer 1μM), 0.93.
Consider `COc1ccccc1N1CCN(CCCCN2C(=O)c3ccc(CNC(=O)CCOCCNC(=O)c4ccc(CNC(=O)CCc5ccc6n5[B-](F)(F)[N+]5=C(c7ccc[nH]7)C=CC5=C6)cc4)cc3C2=O)CC1` [NAN-190-3-NB590], for which the “NanoBRET Fold Response” value at FZD4 (FZD4, tracer 0.1μM) was 1.03; on FZD4 (FZD4, tracer 1μM) it was 1.38; on CCR6 (CCR6, tracer 0.1μM), 1.19; on CCR6 (CCR6, tracer 1μM), 0.93; on MLNR (MLNR, tracer 0.1μM) it was 1.32; at MLNR (MLNR, tracer 1μM), 0.66. Also, the “NanoBRET Fold Response” value is 0.67 on CCR8 (CCR8, tracer 0.1μM) and 1.01 on CCR8 (CCR8, tracer 1μM).
Regarding `CN(CCC=C1c2ccccc2CCc2ccccc21)C(=O)CCOCCOCCOCCOCCNC(=O)CCc1ccc2n1[B-](F)(F)[N+]1=C(c3ccc[nH]3)C=CC1=C2` [Amitriptyline-e-2-NB590], the “NanoBRET Fold Response” value came out at 0.97 at FZD4 (tracer at 1μM), 1.00 at CCR6 (tracer at 1μM) and 0.79 on CCR8 (tracer at 1μM).
On to `O=C(CCc1ccc2n1[B-](F)(F)[N+]1=C(c3ccc[nH]3)C=CC1=C2)NCc1ccc(C(=O)NCCOCCOCCNCC(O)COc2cccc3ccccc23)cc1` (stereo not drawn) [Propranolol-3-NB590], for which the “NanoBRET Fold Response” value is listed as 1.09 on FZD4 (FZD4, 0.1μM); 1.07 on FZD4 (FZD4, 1μM); 0.95 at CCR6 (CCR6, 0.1μM); 1.02 at CCR6 (CCR6, 1μM); 1.01 on MLNR (MLNR, 0.1μM); 1.02 on MLNR (MLNR, 1μM). Moreover, the “NanoBRET Fold Response” value amounted to 1.00 at CCR8 (CCR8, 0.1μM) and 0.93 on CCR8 (CCR8, 1μM).
For the molecule `COc1ccc2c(n1)c(CCNC(C)=O)cn2CCNC(=O)CCc1ccc2n1[B-](F)(F)[N+]1=C(c3ccc[nH]3)C=CC1=C2` [Azamelatonin-1-NB590], the “NanoBRET Fold Response” value at FZD4 (0.1μM tracer) turned out to be 0.91; at FZD4 (1μM tracer), 0.91; at CCR6 (0.1μM tracer), 0.86; at CCR6 (1μM tracer) it was 0.98; on MLNR (0.1μM tracer), 1.00; on MLNR (1μM tracer), 0.92. Further, the “NanoBRET Fold Response” value at CCR8 (0.1μM tracer) was 1.13; at CCR8 (1μM tracer) it was 1.09.

Source of the values: paper PMC8151276, “An Integrated Approach toward NanoBRET Tracers for Analysis of GPCR Ligand Engagement” (Molecules, 2021).
